{"source": "patent US7462643B1", "about": "“Essential fatty acids in the prevention of cardiovascular events” (Pfizer Italia S.R.L., priority 1999, dated 2008)", "test_system": "patients who have suffered from a myocardial infarction", "test": "clinical trial of 3.5 years in infarcted patients on standard therapy, post-infarction mortality versus control group", "format": "in vivo, human", "settings": "added to standard therapy", "from_the_text": "The efficacy of the treatment, according to the invention, is, for instance, proven by the fact that a surprising and highly significant reduction in post-infarction mortality was observed by such treatment in a clinical trial that lasted for 3.5 years, with protocols substantially designed as follows: • 1 a “control” group received the standard therapy which is usually given to infarcted patients; • 2 a “treatment” group, besides the therapy that was given to the “control” group, received 85% EPA+DHA (1 g daily); • 3 a “treatment” group, besides the therapy that was given to the “control” group received vitamin E; and • 4 a “treatment” group, besides the therapy that was given to the control group, received vitamin E and 85% EPA+DHA (1 g daily). […] From the above clinical results, the person skilled in the art will appreciate that, the use of a pharmaceutical composition in accordance to the present invention is certainly useful in human therapy in preventing mortality in patients who have suffered from a myocardial infarction.", "data": [{"substance": "vitamin E", "values": [{"measurement": "result on mortality as compared to the control group (in words)", "value": "no significant results"}]}]}
